From patent US11325955B2, “Stabilized anti-microbial peptides for the treatment of antibiotic-resistant bacterial infections” (priority 2017, dated 2022)
In brackets after ≈: the same amount, converted by molar mass. Read-outs that look alike come from different tables or passages of the source. Positions of bridges follow the written chain, without caps; N, C: chain ends. Non-standard residues stand in square brackets, D forms with d. Residues, ends and D or L forms follow the SMILES beside them. S5 = C=CCCC[C@](C)(N)C(=O)O; Nle = CCCC[C@H](N)C(=O)O

Tests used:
[1] = test system: human red blood cells (RBCs); experiment: Hemolytic activity assay; type: cell-based; settings: peptide at 25 μg/ml, 1 hour at 37° C.
Procedure: For the determination of hemolytic activity, human blood samples were centrifuged to isolate red blood cells (RBCs), which are then washed and suspended in phosphate-buffered saline to yield a 1% (v/v) suspension. The suspension was then added to serial dilutions of peptide stocks in water in clear round-bottom polypropylene 96-well plates and the plates were incubated for 1 hour at 37° C. After incubation, the plates were centrifuged and the supernatant was isolated to determine the amount of hemoglobin released using a spectrophotometer (570 nm), according to the equation: % Hemolysis=(Treated Absorbance−Untreated Control Absorbance)/(1% Triton-X100 Treated Absorbance−Untreated Control Absorbance). The minimum hemolytic concentration (MHC) is the peptide concentration at which there is less than 1% hemoglobin release.

[2] = test system: E. coli clinical isolates that harbor the MCR-1 plasmid; type: cell-based
Procedure: StAMPs were screened against a panel of MDR clinical samples obtained from the Antimicrobial Resistance Isolate Bank of the Centers for Disease Control and Prevention (Atlanta, Ga.).
(§1) The following microbroth dilution protocol was adapted to determine the minimum inhibitory concentration (MIC) of each peptide. First, Mueller-Hinton broth (MHB) was passed through an anion exchange column to remove polyanionic species and generate refined MHB. […] Briefly, bacterial cells were grown overnight in refined MHB at 37° C. and then diluted and allowed to grow again for several hours. Serial dilutions of peptide stocks in water (10 μl) were prepared using clear round-bottom polypropylene 96-well plates. Then 90 μl of bacteria in refined MHB was added to give a final inoculum of 5×10^5 CFU/ml. The plates were then covered with porous tape to reduce evaporation, and incubated for 20-24 hours at 37° C. The MIC is the minimum peptide concentration at which no visible growth was observed.
The first three StAMPs of Table 2 in Example 3 were then tested against 39 clinical isolates of A. baumannii with various degrees of colistin resistance (Table 3, 4).

A baumannii = type: cell-based
Procedure: as §1

B cereus = type: cell-based
Procedure: as §1

E coli = type: cell-based
Procedure: as §1

P aeruginosa = type: cell-based
Procedure: as §1

S aureus = type: cell-based
Procedure: as §1

[3] = test system: primary human renal proximal tubule epithelial cells (pRPTECs); experiment: Renal toxicity assay (pRPTEC lysis, LDH release)
Procedure: (§2) In one embodiment, pRPTECs are seeded at a density of 10,000 cells per well on 96 well plates and incubated for 48 hours at 37° C. Cells are then treated with different concentrations of the StAMP and incubated for another 24-to-48 hour period. Cell viability is then determined and/or lactate dehydrogenase (LDH) release is measured.
(§3) Briefly, pRPTECs in complete growth cell medium were seeded in a 96 well plate at a density of 10,000 cells per well and incubated at 37° C. for 48 hours. Complete medium was then removed and replaced with a toxicity assay medium to which various concentrations of StAMP were added. Cells were then further incubated for 24 to 48 hours after which cell medium was collected and assayed for the presence of Lactate Dehydrogenase (LDH) using a Cytotoxicity Detection Kit (LDH) (Roche).

[4] = test system: primary human renal proximal tubule epithelial cells (pRPTECs)
Procedure: as §2, §3

Structure (SMILES)	% Hemolysis at 25 μg/ml [1] [%]	Antimicrobial Activity MIC ([2]; E. coli CDC Bank# 346, contains MCR-1 plasmid) [mg/L]	Antimicrobial Activity MIC ([2]; E. coli CDC Bank# 349, contains MCR-1 plasmid) [mg/L]	MIC A baumannii (A baumannii) [mg/L]	MIC B cereus (B cereus) [mg/L]	MIC E coli (E coli) [mg/L]	MIC P aeruginosa (P aeruginosa) [mg/L]	MIC S aureus (S aureus) [mg/L]	toxicity on pRPTECs (membranolysis) [3]	pRPTEC lysis (% LDH release) compared to Mag(i+4)1,15(A9K) ([4]; 90 minute incubation, FIG. 2)	pRPTEC lysis (% LDH release), long-term lytic activity ([4]; 48 hours incubation, FIG. 3)
CCCC[C@H](NC(=O)[C@]1(C)CCCC=CCCC[C@](C)(NC(=O)[C@H](C)NC(=O)[C@H](CCCCN)NC(=O)CNC(=O)[C@H](Cc2ccccc2)NC(=O)[C@H](CCCCN)NC(=O)[C@H](CCCCN)NC(=O)[C@H](CCCCN)NC(=O)[C@H](CO)NC(=O)[C@H](Cc2c[nH]cn2)NC(=O)[C@]2(C)CCCC=CCCC[C@](C)(NC(=O)CN)C(=O)NCC(=O)N[C@@H](CCCCN)C(=O)N[C@@H](Cc3ccccc3)C(=O)N2)C(=O)N[C@@H](C(C)C)C(=O)NCC(=O)N[C@@H](CCC(=O)O)C(=O)N1)C(=O)N[C@@H](CC(N)=O)C(=O)N[C@@H](CO)C(N)=O [Mag(i+4)1,15(A9K), GXGKFXHSKKKFGKAXVGEXBNS] (H-G[S5]GKF[S5]HSKKKFGKA[S5]VGE[S5][Nle]NS-NH2; staple 2-6, 16-20)	1.9	1.6	3.1	1.6 (≈ 0.635 µM)	6.2 (≈ 2.46 µM)	1.6 (≈ 0.635 µM)	3.1 (≈ 1.23 µM)	50 (≈ 19.8 µM)	could cause membranolysis of pRPTECs at relatively low concentrations		
CC(C)[C@@H]1NC(=O)[C@@](C)(NC(=O)[C@H](C)NC(=O)[C@H](CCCCN)NC(=O)CNC(=O)[C@H](Cc2ccccc2)NC(=O)[C@H](CCCCN)NC(=O)[C@H](CCCCN)NC(=O)[C@H](CCCCN)NC(=O)[C@H](CO)NC(=O)[C@H](Cc2c[nH]cn2)NC(=O)[C@]2(C)CCCC=CCCC[C@](C)(NC(=O)CN)C(=O)NCC(=O)N[C@@H](CCCCN)C(=O)N[C@@H](Cc3ccccc3)C(=O)N2)CCCC=CCCC[C@@](C)(C(=O)N[C@@H](C)C(=O)N[C@@H](CCCCN)C(=O)N[C@@H](CCCCN)C(N)=O)NC(=O)[C@H](CCC(=O)O)NC(=O)CNC1=O [Mag(i+4)1,15(A9K, B21A, N22K, S23K), GXGKFXHSKKKFGKAXVGEXAKK] (H-G[S5]GKF[S5]HSKKKFGKA[S5]VGE[S5]AKK-NH2; staple 2-6, 16-20)				0.8 (≈ 0.316 µM)	50 (≈ 19.7 µM)	1.6 (≈ 0.632 µM)	3.1 (≈ 1.22 µM)	>50		markedly reduced lytic activity toward pRPTECs	lowered long-term lytic activity
